Measured values published in patent publication US7452908B2, “Amide derivatives” (Banyu Pharmaceutical Co., Ltd., priority 1999, dated 2008).

What was measured:
[1] = molecular target: T1, human m3 muscarinic acetylcholine receptor expressed in CHO cells (Homo sapiens, UniProt P20309); assay: Inhibition of [3H]-N-methylscopolamine binding to muscarinic m3 receptor; conditions: for Ki: human m3 in CHO cells, 0.2 nM [3H]-N-methylscopolamine; for Selectivity m1/m3: ratio of Ki m1 to Ki m3; for Selectivity m2/m3: ratio of Ki m2 to Ki m3; for Selectivity m4/m3: ratio of Ki m4 to Ki m3; for Selectivity m5/m3: ratio of Ki m5 to Ki m3
T1 construct: purchased Receptor Biology, Inc; host or cells: CHO cells
T1 sequence (P20309 whole entry): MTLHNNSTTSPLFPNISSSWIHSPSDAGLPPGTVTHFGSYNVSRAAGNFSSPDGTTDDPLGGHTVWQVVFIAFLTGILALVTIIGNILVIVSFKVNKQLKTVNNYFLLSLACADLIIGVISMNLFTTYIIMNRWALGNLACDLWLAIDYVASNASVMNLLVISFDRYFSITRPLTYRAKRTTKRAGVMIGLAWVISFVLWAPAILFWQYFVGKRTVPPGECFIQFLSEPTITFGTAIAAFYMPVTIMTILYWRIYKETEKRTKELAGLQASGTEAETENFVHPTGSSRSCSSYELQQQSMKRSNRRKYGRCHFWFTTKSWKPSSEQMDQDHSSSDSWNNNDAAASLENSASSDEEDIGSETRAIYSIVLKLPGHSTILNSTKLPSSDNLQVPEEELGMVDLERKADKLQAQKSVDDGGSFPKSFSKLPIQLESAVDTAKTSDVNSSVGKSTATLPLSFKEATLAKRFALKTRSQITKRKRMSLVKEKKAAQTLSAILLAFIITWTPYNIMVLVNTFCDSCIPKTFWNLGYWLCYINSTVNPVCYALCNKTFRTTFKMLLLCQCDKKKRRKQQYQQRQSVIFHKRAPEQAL
Experimental: (§1) These tests were performed according to a modification of the method of Hargreaves, et al. (Br. J. Pharmacol. 107: 494-501, 1992). Namely, muscarinic acetylcholine receptors of human m1, m2, m3, m4 and m5 expressed in CHO cells (Receptor Biology, Inc.) were incubated with 0.2 nM [^3H]-N-methylscopolamine (82Ci/mmol, New England Nuclear, Inc.) and a test compound to be tested in 0.5 ml of 50 mM Tris-HCl, 10 mM MgCl2, 1 mM EDTA solution (pH 7.4) for 120 minutes at room temperature (about 20-25° C.), followed by suction filtration over a glass filter (UniFilter plate-GF/C; Packard). Then the filter was washed four times with 1 ml of ice-cold Tris-HCl buffer and dried at 50° C. for an hour. After adding a scintillator (Microscinti 0; Packard), the radioactivity of [^3H]-N-methylscopolamine binding to the filter was counted with a microplate scintillation counter (TopCount™; Packard). Non-specific receptor binding of [^3H]-N-methylscopolamine was measured by adding 1 μM N-methylscopolamine.

[2] = molecular target: T2, human m4 muscarinic acetylcholine receptor expressed in CHO cells (Homo sapiens, UniProt P08173); assay: Inhibition of [3H]-N-methylscopolamine binding to muscarinic m4 receptor; conditions: 0.2 nM [3H]-N-methylscopolamine
T2 construct: purchased Receptor Biology, Inc; host or cells: CHO cells
T2 sequence (P08173 1-479): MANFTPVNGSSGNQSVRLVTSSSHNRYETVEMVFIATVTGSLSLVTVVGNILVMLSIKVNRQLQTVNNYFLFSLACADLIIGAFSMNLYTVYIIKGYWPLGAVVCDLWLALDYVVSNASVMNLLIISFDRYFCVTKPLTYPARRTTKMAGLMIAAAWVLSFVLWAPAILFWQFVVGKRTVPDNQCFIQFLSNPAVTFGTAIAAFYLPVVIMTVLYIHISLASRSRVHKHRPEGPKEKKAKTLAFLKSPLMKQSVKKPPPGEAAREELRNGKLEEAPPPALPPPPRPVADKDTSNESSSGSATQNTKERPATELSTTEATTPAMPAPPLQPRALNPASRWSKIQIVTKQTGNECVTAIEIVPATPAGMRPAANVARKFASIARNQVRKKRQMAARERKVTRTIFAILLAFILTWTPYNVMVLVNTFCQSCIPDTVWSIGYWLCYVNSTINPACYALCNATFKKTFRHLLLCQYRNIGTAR
Experimental: as §1

[3] = molecular target: T3, human m5 muscarinic acetylcholine receptor expressed in CHO cells (Homo sapiens, UniProt P08912); assay: Inhibition of [3H]-N-methylscopolamine binding to muscarinic m5 receptor; conditions: 0.2 nM [3H]-N-methylscopolamine
T3 construct: purchased Receptor Biology, Inc; host or cells: CHO cells
T3 sequence (P08912 1-532): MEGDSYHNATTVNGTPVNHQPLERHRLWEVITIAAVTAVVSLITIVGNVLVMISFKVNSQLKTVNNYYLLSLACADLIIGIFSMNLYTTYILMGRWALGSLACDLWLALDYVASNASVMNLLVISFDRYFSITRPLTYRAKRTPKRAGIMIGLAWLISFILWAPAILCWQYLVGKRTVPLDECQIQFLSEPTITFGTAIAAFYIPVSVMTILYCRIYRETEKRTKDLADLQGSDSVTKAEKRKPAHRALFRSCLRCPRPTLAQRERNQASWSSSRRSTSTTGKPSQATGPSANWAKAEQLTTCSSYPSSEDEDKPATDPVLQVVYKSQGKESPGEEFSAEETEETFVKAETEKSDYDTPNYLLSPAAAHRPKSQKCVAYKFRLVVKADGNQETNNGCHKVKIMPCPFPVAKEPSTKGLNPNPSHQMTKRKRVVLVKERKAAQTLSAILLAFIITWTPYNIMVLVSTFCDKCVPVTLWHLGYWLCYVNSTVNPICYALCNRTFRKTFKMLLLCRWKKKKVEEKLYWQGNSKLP
Experimental: as §1

[4] = molecular target: T4, human m1 muscarinic acetylcholine receptor expressed in CHO cells (Homo sapiens, UniProt P11229); assay: Inhibition of [3H]-N-methylscopolamine binding to muscarinic m1 receptor; conditions: 0.2 nM [3H]-N-methylscopolamine
T4 construct: purchased Receptor Biology, Inc; host or cells: CHO cells
T4 sequence (P11229 1-460): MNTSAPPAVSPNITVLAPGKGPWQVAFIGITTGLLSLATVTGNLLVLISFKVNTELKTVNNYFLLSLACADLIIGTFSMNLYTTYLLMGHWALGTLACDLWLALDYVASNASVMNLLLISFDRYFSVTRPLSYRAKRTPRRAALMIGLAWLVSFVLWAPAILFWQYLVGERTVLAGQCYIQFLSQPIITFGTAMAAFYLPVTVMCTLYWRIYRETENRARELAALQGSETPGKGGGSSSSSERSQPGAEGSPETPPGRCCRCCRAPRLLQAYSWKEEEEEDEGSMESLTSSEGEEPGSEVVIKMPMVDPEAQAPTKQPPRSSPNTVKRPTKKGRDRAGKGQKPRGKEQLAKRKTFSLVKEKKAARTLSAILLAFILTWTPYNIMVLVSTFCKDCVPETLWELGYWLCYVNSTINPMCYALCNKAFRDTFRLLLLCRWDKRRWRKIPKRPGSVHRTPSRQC
Experimental: as §1

[5] = molecular target: T5, human m2 muscarinic acetylcholine receptor expressed in CHO cells (Homo sapiens, UniProt P08172); assay: Inhibition of [3H]-N-methylscopolamine binding to muscarinic m2 receptor; conditions: 0.2 nM [3H]-N-methylscopolamine
T5 construct: purchased Receptor Biology, Inc; host or cells: CHO cells
T5 sequence (P08172 1-466): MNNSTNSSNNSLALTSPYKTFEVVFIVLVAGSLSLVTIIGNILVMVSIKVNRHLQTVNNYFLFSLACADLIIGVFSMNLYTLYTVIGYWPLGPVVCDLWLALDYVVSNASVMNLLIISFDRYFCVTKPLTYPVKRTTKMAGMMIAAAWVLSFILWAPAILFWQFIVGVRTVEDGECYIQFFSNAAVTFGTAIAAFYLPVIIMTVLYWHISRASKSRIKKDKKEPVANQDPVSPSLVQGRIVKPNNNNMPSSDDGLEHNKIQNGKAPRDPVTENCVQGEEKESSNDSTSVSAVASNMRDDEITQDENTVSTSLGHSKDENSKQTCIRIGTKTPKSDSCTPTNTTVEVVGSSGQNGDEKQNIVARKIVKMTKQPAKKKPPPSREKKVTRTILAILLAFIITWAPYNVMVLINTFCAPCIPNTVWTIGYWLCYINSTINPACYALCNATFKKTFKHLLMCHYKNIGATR
Experimental: as §1

M3 receptor = molecular target: T6, M3 receptor (Canis lupus familiaris, UniProt A0A8I3N190); assay: Antagonism to M3 receptor: bronchodilation in anesthetized dogs (methacholine provocation test); format: in vivo, beagle dogs; conditions: inhalation of 1 mg/ml for 10 minutes, methacholine threshold four hours after administration
T6 construct: from tissue; host or cells: whole animal, male beagle dogs (in vivo, airway)
T6 sequence (A0A8I3N190 1-590): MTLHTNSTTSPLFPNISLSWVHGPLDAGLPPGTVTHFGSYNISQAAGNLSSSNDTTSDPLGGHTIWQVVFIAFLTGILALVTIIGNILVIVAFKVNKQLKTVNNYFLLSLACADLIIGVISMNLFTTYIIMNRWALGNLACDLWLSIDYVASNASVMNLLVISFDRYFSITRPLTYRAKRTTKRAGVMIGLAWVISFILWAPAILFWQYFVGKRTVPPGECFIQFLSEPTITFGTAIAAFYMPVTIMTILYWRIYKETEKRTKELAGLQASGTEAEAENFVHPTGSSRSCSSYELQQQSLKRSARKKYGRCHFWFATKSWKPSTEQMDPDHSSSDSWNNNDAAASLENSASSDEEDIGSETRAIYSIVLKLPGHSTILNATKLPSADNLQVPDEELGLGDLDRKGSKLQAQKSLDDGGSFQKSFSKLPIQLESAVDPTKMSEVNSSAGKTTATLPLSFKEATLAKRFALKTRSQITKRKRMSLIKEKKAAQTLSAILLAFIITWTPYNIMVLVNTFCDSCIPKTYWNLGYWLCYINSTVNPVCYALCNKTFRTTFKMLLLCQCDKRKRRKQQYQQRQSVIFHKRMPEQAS
Experimental: The bronchodilation action of inhaled test compound was evaluated by measuring the compounds' inhibitory action on respiratory resistance-increasing reaction induced by a methacholine provocation test. For the experiment, 12 to 36 months old male beagle dogs (weighing 10-15 kg) were used. After being anesthetized by intravenous pentobarbital administration (30 mg/kg), the dogs were intubated cannulae in their trachea. After their respiration became stable, the cannulae were connected with Astograph (TCK-6100H, Chest) and a methacholine provocation test by 3 Hz oscillation method was conducted. […] The methacholine concentration at which the respiratory resistance increased to twice the initial value was recorded as the methacholine reaction threshold value. Before evaluating the test compounds, the methacholine reaction threshold value^1) under no drug treatment was measured at least twice at a week's interval, to select the dogs showing reproducible reaction.
The inhaling administration of each test compound (1 mg/ml) was conducted for 10 minutes under pentobarbital anesthetization (30 mg/kg, i.v.), with the nebulizer in the Astograph. […] The bronchodilator activity (shift value) of each tested compound was determined according to the following equation: […]

Ki [1] | Selectivity m1/m3 [1] | Selectivity m2/m3 [1] | Selectivity m4/m3 [1] | Selectivity m5/m3 [1] | Ki [2] | Ki [3] | Ki [4] | Ki [5] | Shift (fold) Airway constriction M3 (M3 receptor) | Structure (SMILES)
15 nM | 80 times | 67 times | 24 times | 33 times | 360 nM | 490 nM | 1200 nM | 1000 nM | – | CCCCCCC[N+]1(C)CCC[C@H](CNC(=O)CCNC(=O)CNC(=O)CC(c2ccccc2)(c2ccccc2)c2ccccc2)C1.[Br-] (stereo partly drawn) [Example 146, (3R)-1-heptyl-1-methyl-3-({(3-{(2-{(3,3,3-triphenylpropanoyl)amino}acetyl)amino}propanoyl)amino}methyl)piperidinium bromide]
1.2 nM | 110 times | 71 times | 30 times | 180 times | 36 nM | 220 nM | 130 nM | 85 nM | – | O=C(CCCCCNC(=O)CC(c1ccccc1)(c1ccccc1)c1ccccc1)NC[C@H]1CCCN(CC2CCCCC2)C1 [Example 28, N-(6-{((3R)-1-cyclohexylmethyl-3-piperidyl)methyl}amino-6-oxohexyl)-3,3,3-triphenylpropanamide]
4.7 nM | 32 times | 100 times | 66 times | 180 times | 310 nM | 850 nM | 150 nM | 490 nM | – | CC[C@H](C)C[N+]1(CC)CCC[C@@H](CNC(=O)CCCCCNC(=O)CC(c2ccccc2)(c2ccccc2)c2ccccc2)C1.[Cl-] (stereo partly drawn) [Example 150, (3S)-1-ethyl-1-{(2S)-2-methylbutyl}-3-({(6-{(3,3,3-triphenylpropanoyl)amino}hexanoyl)amino}methyl)piperidinium chloride]
1.3 nM | 85 times | 85 times | 21 times | 180 times | 27 nM | 230 nM | 110 nM | 110 nM | – | CC[N+]1(CC)CCC[C@H](CNC(=O)[C@H]2CCCN2C(=O)[C@@H]2C[C@@H](O)CN2C(=O)CC(c2ccc(Cl)cc2)(c2ccc(Cl)cc2)c2ccc(Cl)cc2)C1.[Cl-] [Example 144, (3R)-1,1-diethyl-3-({({(2R)-1-({(2S,4R)-4-hydroxy-1-{3,3,3-tris-(4-chlorophenyl)propanoyl}-2-pyrrolidinyl}carbonyl)-2-pyrrolidinyl}-carbonyl)amino}methyl)piperidinium chloride]
3.5 nM | 130 times | 130 times | 21 times | 250 times | 74 nM | 890 nM | 450 nM | 460 nM | >40.0 fold | O=C(NC[C@H]1CCC[N+]2(CCCC2)C1)[C@H]1CCCN1C(=O)[C@@H]1C[C@@H](O)CN1C(=O)CC(c1ccccc1)(c1ccccc1)c1ccccc1.[Cl-] [Example 151, (7R)-7-({({(2R)-1-({(2S,4R)-4-hydroxy-1-(3,3,3-triphenylpropanoyl)-2-pyrrolidinyl}carbonyl)-2-pyrrolidinyl}carbonyl)amino}methyl)-5-azoniaspiro [4.5]decane chloride]
0.75 nM | 360 times | 40 times | 11 times | 25 times | 8.1 nM | 19 nM | 270 nM | 30 nM | – | O=C(CCNC(=O)[C@H](Cc1c[nH]cn1)NC(=O)CC(c1ccccc1)(c1ccccc1)c1ccccc1)NC[C@H]1CCCN(CC2CCCCC2)C1 [Example 19, N-{(1S)-2-(3-{((3R)-1-cyclohexylmethyl-3-piperidyl)methyl}-amino-3-oxopropyl)amino-1-(1H-imidazol-4-ylmethyl)-2-oxoethyl}-3,3,3-triphenylpropanamide]
1.8 nM | 480 times | 140 times | 37 times | 46 times | 66 nM | 82 nM | 860 nM | 250 nM | – | CCCCCN1CCC[C@H](CNC(=O)CCNC(=O)CNC(=O)CC(c2ccccc2)(c2ccccc2)c2ccccc2)C1 [Example 6, N-{2-(3-{((3R)-1-pentyl-3-piperidyl)methyl}amino-3-oxopropyl)amino-2-oxoethyl}-3,3,3-triphenylpropanamide]
